The assay has as its target calcium- and phospholipid-dependent protein kinase (PKC). Put plainly: Inhibition of the activity of protein kinase C (incorporation of P^32-labelled phosphate into histone H-1). Particulars: PKC enriched from rat brain; histone H-1 substrate; 5 min, 30° C.; pH 7.5. The assay is classed as biochemical. An excerpt:
For the clarification of the inhibiting influence of compounds of formula I according to the present invention on the calcium- and phospholipid-dependent protein kinase (PKC), this enzyme activity was enriched from rat brain. Using the purification steps described in the literature (J. Biol. Chem., 260, 15718-15722/1985), in the case of a purification consisting of two steps, there was utilized the property of the enzyme to bind to cell membranes in the presence of calcium and to be dissolved off again by calcium chelators (EGTA). In the first enrichment step, there took place the binding of the PKC to membranes of the rat brain and in the second step on so-called inside-out vesicles or erythrocytes. After dissolving off from the erythrocyte membranes and rebuffering, the PKC preparation was present in 10 mM HEPES, 1 mM DTT, 0.1% PEG 20000, pH 7.5. Under these conditions, it could be stored at -70° C. for several months without loss of activity.
The activity of the enzyme was determined via the incorporation of P^32 -labelled phosphate into the protein histone H-1 (Sigma Type III) which can be phosphorylated by PKC.
The test thereby contains the following components: 50 mM HEPES-NaOH (pH 7.5), 5 mM magnesium chloride, 1 mM DTT, 4 μm. free calcium ions, 10 μMaTP, 1 μg phosphatidylserine, 0.2 μg 1,2-diolein, as well as 40 μg histone H-1 and optionally the test substance.
The batch is preincubated for 4 minutes at 30° C. and the reaction then started by the addition of 5 nM PKC. After incubating for 5 minutes at 30° C., the reaction is stopped with 10% TCA and the samples then filtered off. The phosphate incorporation is determined by Cerenkov counting in a scintillation counter. The kinase activity measured in the absence of the test substance was, in each case, taken as being 100% and the inhibiting action of the compounds of formula I referred thereto as percentages.

Counter-ions that a name gives are not always drawn.

As a reminder, the IC50 is the concentration needed to halve the response being measured. In the case of `CCCCCCCCCCCCCCCCCCOc1cn(Cc2ccccc2)c(CNCCCNC(C)c2ccccc2)cc1=O` (racemic) [Example 83, (±)-1-Benzyl-5-octadecyloxy)-2-{N-[3-(1-phenylethyl)aminopropyl]-aminomethyl}-4(1H)-pyridone·trihydrochloride], the 50% inhibitory concentration (IC50) came out at 2.6 µM.
For the compound `CCCCCCCCCCCCCCCCCCOc1cn(Cc2ccccc2)c(CN2CCN(C(C)c3ccccc3)CC2)cc1=O` (racemic) [Example 97, (±)-1-[(1-Benzyl-5-octadecyloxy-4(1H)-pyridone-2-yl)methyl]-4-(1-phenylethyl)piperazine·trihydrochloride 3/4 H2 O], the IC50 amounted to 4.4 µM.
For the compound `CCCCCCCCCCCCCCCCCCOc1cn(C(C)c2ccccc2)c(CN2CCN(Cc3ccccc3)CC2)cc1=O` (racemic) [Example 98, (±)-1-[(5-Octadecyloxy-1-(1-phenylethyl)-4(1H)-pyridone-2-yl)-methyl]-4-benzylpiperazine], the half-inhibitory concentration (IC50) came out at 5.4 µM.
In the case of `CCCCCCCCCCCCCCCCCCOc1cn(Cc2ccccc2)c(CN2CCNCC2C)cc1=O` (racemic) [Example 102, (±)-1-[(1-Benzyl-5-octadecyloxy-4(1H)-pyridon-2-yl)methyl]-2-methylpiperazine fumarate], the IC50 was 2 µM.
Then `CCCCCCCCCCCCCCCCCCOc1cn(C(C)c2ccccc2)c(CN2CCN(Cc3ccccc3)CC2)cc1=O` (single isomer, unassigned; (+)) [Example 100, (+)-1-[(5-Octadecyloxy-1-(1-phenylethyl)-4(1H)-pyridone-2-yl)-methyl]-4-benzylpiperazine], with 2.7 µM; and `CCCCCCCCCCCCCCCCCCOc1cn(C(C)c2ccccc2)c(CN2CCN(Cc3ccccc3)CC2)cc1=O` (single isomer, unassigned; (-)) [Example 99, (-)-1-[(5-Octadecyloxy-1-(1-phenylethyl)-4(1H)-pyridone-2-yl)-methyl]-4-benzylpiperazine], with 5.2 µM.
Consider `CCCCCCCCCCCCCCCCCCOc1cn(CCCN(C)C)c(CO)cc1=O` [Example 21, 1-(3-Dimethylaminopropyl)-2-hydroxymethyl-5-octadecyloxy-4(1H)-pyridone], for which the 50% inhibitory concentration (IC50) came out at 2.4 µM.
Under `CCCCCCCCCCCCCCCCCCOc1cn(C)c(CNCCCN(C)C)cc1=O` [Example 56, 2-[N-(3-Dimethlaminopropyl)-aminomethyl]-1-methyl-5-octadecyloxy-4(1H)-pyridone trihydrochloride hemihydrate] stands 2.9 µM; under `CCCCCCCCCCCCCCCCCCOc1cn(Cc2ccccc2)c(CN(C)CCN(C)C)cc1=O` [Example 57, 1-Benzyl-2-[N-(2-dimethylaminoethyl)-N-methylaminomethyl]-5-octadecyloxy-4(1H)-pyridone trihydrochloride], 1.9 µM; under `CCCCCCCCCCCCCCCCCCOc1cn(CCC)c(CNCCCN(C)C)cc1=O` [Example 59, 2-[N-(3-Dimethylaminopropyl)aminomethyl]-5-octadecyloxy-1-propyl-4(1H)-pyridone dioxalate], 2.9 µM.
Regarding `CCCCCCCCCCCCCCCCCCOc1cn(C)c(CNCCCN)cc1=O` [Example 60, 2-[N-(3-Aminopropyl)-aminomethyl]-1-methyl-5-octadecyloxy-4(1H)-pyridone trihydrochloride], the IC50 was found to be 2.7 µM.
Consider `CCCCCCCCCCCCCCCCCCOc1cn(Cc2ccccc2)c(CNCCCN)cc1=O` [Example 61, 2-[N-(3-Aminopropyl)-aminomethyl]-1-benzyl-5-octadecyloxy-4(1H)-pyridone trihydrochloride], for which the IC50 came to 2.1 µM.
Then `CCCCCCCCCCCCCCOc1cn(Cc2ccccc2)c(CNCCCN(C)C)cc1=O` [Example 65, 1-Benzyl-2-[N-(3-dimethylaminopropyl)aminomethyl]-5-tetradecyloxy-4(1H)-pyridone dioxalate monohydrate], with 6.5 µM; and `CCCCCCCCCCCCCCCCCCCCOc1cn(Cc2ccccc2)c(CNCCCN(C)C)cc1=O` [Example 66, 1-Benzyl-2-[N-(3-dimethylaminopropyl)aminomethyl]-5-eicosanyloxy-4(1H)-pyridone dioxalate monohydrate], with 2.5 µM; and `CCCCCCCCCCCCCCCCCCOc1cn(CC2CCCCC2)c(CNCCCN(C)C)cc1=O` [Example 68, 1-Cyclohexylmethyl-2-[N-(3-dimethylaminopropyl)aminomethyl]-5-octadecyloxy-4(1H)-pyridone difumarate], with 1.9 µM.
Then `CCCCCCCCCCCCCCCCCCOc1cn(-c2ccccc2)c(CNCCCN(C)C)cc1=O` [Example 70, 2-[N-(3-Dimethylaminopropyl)aminomethyl]-5-octadecyloxy-1-phenyl-4(1H)-pyridone], with 2.2 µM; and `CCCCCCCCCCCCCCCCCCOc1cn(Cc2ccc(OC)cc2)c(CNCCCN(C)C)cc1=O` [Example 72, 2-[N-(3-Dimethylaminopropyl)aminomethyl]-1-(4-methoxybenzyl)-5-octadecyloxy-4(1H)-pyridone trihydrochloride monohydrate], with 3.6 µM.
For `CCCCCCCCCCCCCCCCCCOc1cn(Cc2ccccc2)c(CN(C)C)cc1=O` [Example 73, 1-Benzyl-2-dimethylaminomethyl-5-octadecyloxy-4(1H)-pyridone oxalate hemihydrate], the IC50 was determined as 4.4 µM.
Then `CCCCCCCCCCCCCCCCCCOc1cn(Cc2ccccc2OC)c(CNCCCN(C)C)cc1=O` [Example 74, 2-[N-(3-Dimethylaminopropyl)aminomethyl]-1-(2-methoxybenzyl)-5-octadecyloxy-4(1H)-pyridone difumarate], with 2.1 µM; and `CCCCCCCCCCCCCCCCCCOc1cn(Cc2ccccc2)c(CN(C)Cc2ccccc2)cc1=O` [Example 75, 1-Benzyl-2-(N-benzyl-N-methylaminomethyl)-5-octadecyloxy-4(1H)-pyridone], with 9.5 µM.
In the case of `CCCCCCCCCCCCCCCCCCOc1cn(Cc2ccc(C)cc2)c(CNCCCN(C)C)cc1=O` [Example 76, 2-[N-(3-Dimethylaminopropyl)aminomethyl]-1-(4-methylbenzyl)-5-octadecyloxy-4(1H)-pyridone trihydrochloride hemihydrate], the concentration for half-maximal inhibition (IC50) was 1.9 µM.
Take `CCCCCCCCCCCCCCCCCCOc1cn(Cc2ccccc2)c(CNCCCCN)cc1=O` [Example 77, 2-[N-(4-Aminobutyl)aminomethyl]-1-benzyl-5-octadecyloxy-4(1H)-pyridone trihydrochloride]: the IC50 stood at 2.3 µM.
Under `CCCCCCCC/C=C\CCCCCCCCOc1cn(Cc2ccccc2)c(CNCCCN(C)C)cc1=O` [Example 78] stands 4.6 µM; under `CCCCCCCCCCCCCCCCCCOc1cn(-c2ccc(OCc3ccccc3)cc2)c(CNCCCN(C)C)cc1=O` [Example 79, 1-(4-Benzyloxyphenyl)-2-[N-(3-dimethylaminopropyl)aminomethyl]-5-octadecyloxy-4(1H)-pyridone], 2.2 µM; under `CCCCCCCCCCCCCCCCCCOc1cn(-c2ccc(OCc3ccccc3)cc2)c(CNCCCN(C)C)cc1=O` [Example 80, 1-(4-Benzyloxyphenyl)-2-[N-(3-dimethylaminopropyl)aminomethyl]-5-octadecyloxy-4(1H)-pyridone·difumarate·2,5 H2 O], 2.6 µM.
In the case of `CCCCCCCCCCCCCCCCCCOc1cn(Cc2ccc(O)cc2)c(CNCCCN(C)C)cc1=O` [Example 84], the concentration for half-maximal inhibition (IC50) stood at 3.4 µM.
Regarding `CCCCCCCCCCCCCCCCCCOc1cn(-c2ccc(O)cc2)c(CNCCCN(C)C)cc1=O` [Example 85, 2-[N-(3-Dimethylaminopropyl)aminomethyl]-1-(4-hydroxyphenyl)-5-octadecyloxy-4(1H)-pyridone·trihydrochloride·0,5 H2 O], the IC50 was determined as 5.8 µM.
Then `CCCCCCCCCCCCCCCCCCOc1cn(Cc2ccccc2)c(CN(C)CCCN(C)C)cc1=O` [Example 89, 1-Benzyl-2-[N-(3-dimethylaminopropyl)-N-methylaminomethyl]-5-octadecyloxy-4(1H)-pyridone trihydrochloride], with 1.8 µM; and `CCCCCCCCCCCCCCCCCCOc1cn(Cc2ccccc2)c(CN2CCN(Cc3ccccc3)CC2)cc1=O` [Example 93, 1-[(1-Benzyl-5-octadecyloxy-4(1H)-pyridone-2-yl)methyl]-4-benzylpiperazine·dioxlate·1/2 H2 O], with 5.5 µM.
Under `CCCCCCCCCCCCCCCCCCOc1cn(Cc2ccccc2)c(CN2CCN(CCc3ccccc3)CC2)cc1=O` [Example 94, 1-[(1-Benzyl-5-octadecyloxy-4(1H)-pyridone-2-yl)methyl]-4-(2-phenylethyl)piperazine·trihydrochloride·1/2 H2 O] stands 2.4 µM; under `CCCCCCCCCCOc1cn(Cc2ccccc2)c(CN2CCN(CCc3ccccc3)CC2)cc1=O` [Example 95, 1-[(1-Benzyl-5-decyloxy-4(1H)-pyridone-2-yl)-methyl]4-(2-phenylethyl)piperazine·dihydrochloride], 4.3 µM.

The values above are taken from patent publication US5185352A, “Alkoxy-4(1H)-pyridone derivatives, processes for the preparation thereof and pharmaceutical compositions containing them” (Goedecke Aktiengesellschaft, priority 1988, dated 1993).
